Assay results: ChEMBL document CHEMBL5236661, “A new selective inhibitor for IMP-1 metallo-β-lactamase, 3Z,5E-octa-3,5-diene-1,3,4-tricarboxylic acid-3,4-anhydride” (Bioorg Med Chem, 2023)
Values after ≈ are worked out from the molar mass of the structure shown. Active and inactive are the calls of the source. The calls are words filed in the database; no cut-off is given here.

How the values were obtained:
Escherichia coli [1] = assay: Antibacterial activity against Escherichia coli KB366 expressing IMP-1 assessed as inhibition of bacterial growth at 0.03 ug in absence of meropenem incubated overnight by paper disk method; format: functional, organism-based; settings: dose 0.03 µg
Escherichia coli [2] = assay: Antibacterial activity against Escherichia coli KB366 expressing IMP-1 assessed as inhibition of bacterial growth at 3 ug in presence of meropenem incubated overnight by paper disk method; format: functional; settings: read-out: IZ
Escherichia coli [3] = assay: Antibacterial activity against Escherichia coli KB366 expressing IMP-1 assessed as inhibition of bacterial growth at 30 ug in absence of meropenem incubated overnight by paper disk method; format: functional, organism-based; settings: dose 30.0 µg
Escherichia coli [4] = assay: Antibacterial activity against Escherichia coli KB366 expressing IMP-1 assessed as inhibition of bacterial growth at 3 ug in absence of meropenem incubated overnight by paper disk method; format: functional, organism-based; settings: dose 3.0 µg
Escherichia coli [5] = assay: Antibacterial activity against Escherichia coli KB366 expressing IMP-1 assessed as inhibition of bacterial growth at 0.3 ug in absence of meropenem incubated overnight by paper disk method; format: functional, organism-based; settings: dose 0.3 µg
Pseudomonas aeruginosa [6] = assay: Antibacterial activity against Pseudomonas aeruginosa KB367 expressing IMP-1 assessed as inhibition of bacterial growth at 30 ug in absence of meropenem incubated overnight by paper disk method; format: functional, organism-based; settings: dose 30.0 µg
Escherichia coli [7] = assay: Antibacterial activity against Escherichia coli KB366 expressing IMP-1 assessed as inhibition of bacterial growth at 100 ug in absence of meropenem incubated overnight by paper disk method; format: functional, organism-based; settings: dose 100.0 µg
Escherichia coli [8] = assay: Antibacterial activity against Escherichia coli KB366 expressing IMP-1 assessed as inhibition of bacterial growth at 1 ug in absence of meropenem incubated overnight by paper disk method; format: functional, organism-based; settings: dose 1.0 µg
Escherichia coli [9] = assay: Antibacterial activity against Escherichia coli KB366 expressing IMP-1 assessed as inhibition of bacterial growth at 0.1 ug in presence of meropenem incubated overnight by paper disk method; format: functional; settings: dose 0.1 µg
Escherichia coli [10] = assay: Antibacterial activity against Escherichia coli KB366 expressing IMP-1 assessed as inhibition of bacterial growth at 100 ug in presence of meropenem incubated overnight by paper disk method; format: functional; settings: read-out: IZ
Pseudomonas aeruginosa [11] = assay: Antibacterial activity against Pseudomonas aeruginosa KB367 expressing IMP-1 assessed as inhibition of bacterial growth at 0.3 ug in presence of meropenem incubated overnight by paper disk method; format: functional, organism-based; settings: dose 0.3 µg
Escherichia coli [12] = assay: Antibacterial activity against Escherichia coli KB366 expressing IMP-1 assessed as inhibition of bacterial growth at 0.01 ug in presence of meropenem incubated overnight by paper disk method; format: functional; settings: dose 0.01 µg
Pseudomonas aeruginosa [13] = assay: Antibacterial activity against Pseudomonas aeruginosa KB367 expressing IMP-1 assessed as inhibition of bacterial growth at 0.1 ug in presence of meropenem incubated overnight by paper disk method; format: functional, organism-based; settings: dose 0.1 µg
Pseudomonas aeruginosa [14] = assay: Antibacterial activity against Pseudomonas aeruginosa KB367 expressing IMP-1 assessed as inhibition of bacterial growth at 3 ug in absence of meropenem incubated overnight by paper disk method; format: functional, organism-based; settings: dose 3.0 µg
Pseudomonas aeruginosa [15] = assay: Antibacterial activity against Pseudomonas aeruginosa KB367 expressing IMP-1 assessed as inhibition of bacterial growth at 10 ug in absence of meropenem incubated overnight by paper disk method; format: functional, organism-based; settings: dose 10.0 µg
Escherichia coli [16] = assay: Antibacterial activity against Escherichia coli KB366 expressing IMP-1 assessed as inhibition of bacterial growth at 0.3 ug in presence of meropenem incubated overnight by paper disk method; format: functional
Escherichia coli [17] = assay: Antibacterial activity against Escherichia coli KB366 expressing IMP-1 assessed as inhibition of bacterial growth at 10 ug in presence of meropenem incubated overnight by paper disk method; format: functional; settings: read-out: IZ
Pseudomonas aeruginosa [18] = assay: Antibacterial activity against Pseudomonas aeruginosa KB367 expressing IMP-1 assessed as inhibition of bacterial growth at 0.3 ug in absence of meropenem incubated overnight by paper disk method; format: functional, organism-based; settings: dose 0.3 µg
Escherichia coli [19] = assay: Antibacterial activity against Escherichia coli KB366 expressing IMP-1 assessed as inhibition of bacterial growth at 30 ug in presence of meropenem incubated overnight by paper disk method; format: functional; settings: read-out: IZ
Pseudomonas aeruginosa [20] = assay: Antibacterial activity against Pseudomonas aeruginosa KB367 expressing IMP-1 assessed as inhibition of bacterial growth at 1 ug in absence of meropenem incubated overnight by paper disk method; format: functional, organism-based; settings: dose 1.0 µg
Escherichia coli [21] = assay: Antibacterial activity against Escherichia coli KB366 expressing IMP-1 assessed as inhibition of bacterial growth at 0.01 ug in absence of meropenem incubated overnight by paper disk method; format: functional, organism-based; settings: dose 0.01 µg
Escherichia coli [22] = assay: Antibacterial activity against Escherichia coli KB366 expressing IMP-1 assessed as inhibition of bacterial growth at 0.03 ug in presence of meropenem incubated overnight by paper disk method; format: functional; settings: dose 0.03 µg
Pseudomonas aeruginosa [23] = assay: Antibacterial activity against Pseudomonas aeruginosa KB367 expressing IMP-1 assessed as inhibition of bacterial growth at 3 ug in presence of meropenem incubated overnight by paper disk method; format: functional
Pseudomonas aeruginosa [24] = assay: Antibacterial activity against Pseudomonas aeruginosa KB367 expressing IMP-1 assessed as inhibition of bacterial growth at 30 ug in presence of meropenem incubated overnight by paper disk method; format: functional; settings: read-out: IZ
Pseudomonas aeruginosa [25] = assay: Antibacterial activity against Pseudomonas aeruginosa KB367 expressing IMP-1 assessed as inhibition of bacterial growth at 100 ug in presence of meropenem incubated overnight by paper disk method; format: functional; settings: read-out: IZ
Escherichia coli [26] = assay: Antibacterial activity against Escherichia coli KB366 expressing IMP-1 assessed as inhibition of bacterial growth at 0.1 ug in absence of meropenem incubated overnight by paper disk method; format: functional, organism-based; settings: dose 0.1 µg
Escherichia coli [27] = assay: Antibacterial activity against Escherichia coli KB366 expressing IMP-1 assessed as inhibition of bacterial growth at 1 ug in presence of meropenem incubated overnight by paper disk method; format: functional; settings: read-out: IZ
Pseudomonas aeruginosa [28] = assay: Antibacterial activity against Pseudomonas aeruginosa KB367 expressing IMP-1 assessed as inhibition of bacterial growth at 10 ug in presence of meropenem incubated overnight by paper disk method; format: functional; settings: read-out: IZ
Pseudomonas aeruginosa [29] = assay: Antibacterial activity against Pseudomonas aeruginosa KB367 expressing IMP-1 assessed as inhibition of bacterial growth at 0.1 ug in absence of meropenem incubated overnight by paper disk method; format: functional, organism-based; settings: dose 0.1 µg
Pseudomonas aeruginosa [30] = assay: Antibacterial activity against Pseudomonas aeruginosa KB367 expressing IMP-1 assessed as inhibition of bacterial growth at 1 ug in presence of meropenem incubated overnight by paper disk method; format: functional; settings: dose 1.0 µg
Pseudomonas aeruginosa [31] = assay: Antibacterial activity against Pseudomonas aeruginosa KB367 expressing IMP-1 assessed as inhibition of bacterial growth at 100 ug in absence of meropenem incubated overnight by paper disk method; format: functional, organism-based; settings: dose 100.0 µg
Escherichia coli [32] = assay: Antibacterial activity against Escherichia coli KB366 expressing IMP-1 assessed as inhibition of bacterial growth at 10 ug in absence of meropenem incubated overnight by paper disk method; format: functional, organism-based; settings: dose 10.0 µg
[33] = Inhibition of bacterial Metallo-beta-lactamase IMP-1 using nitrocefin as substrate pre-incubated for 15 mins followed by substrate addition by microplate reader; design: species or system Bacteria

SMILES	IC50 [33] [µg/mL]	zone of inhibition at 3 µg/disc (Escherichia coli [2]) [mm]	inhibition zone (IZ) (Escherichia coli [3])	inhibition zone (IZ) (Escherichia coli [4])	inhibition zone (IZ) (Escherichia coli [5])	inhibition zone (IZ) (Pseudomonas aeruginosa [6])	inhibition zone (IZ) (Escherichia coli [7])	inhibition zone (IZ) (Escherichia coli [8])	inhibition zone (IZ) (Escherichia coli [9])	zone of inhibition at 100 µg/disc (Escherichia coli [10]) [mm]	inhibition zone (IZ) (Pseudomonas aeruginosa [11])	inhibition zone (IZ) (Pseudomonas aeruginosa [13])	inhibition zone (IZ) (Pseudomonas aeruginosa [14])	inhibition zone (IZ) (Pseudomonas aeruginosa [15])	zone of inhibition at 10 µg/disc (Escherichia coli [17]) [mm]	inhibition zone (IZ) (Pseudomonas aeruginosa [18])	zone of inhibition at 30 µg/disc (Escherichia coli [19]) [mm]	inhibition zone (IZ) (Pseudomonas aeruginosa [20])	zone of inhibition at 30 µg/disc (Pseudomonas aeruginosa [24]) [mm]	zone of inhibition at 100 µg/disc (Pseudomonas aeruginosa [25]) [mm]	also measured
CC/C=C/C1=C(c2ccc(O)c(O)c2)C(=O)OC1=O	3.74 (≈ 14.4 µM)	18	inactive	inactive	inactive	inactive	inactive	inactive	inactive	31	inactive	inactive	inactive	inactive	23	inactive	27	inactive	14	18	inhibition zone (IZ) (Escherichia coli [1]): inactive; inhibition zone (IZ) (Escherichia coli [12]): inactive; zone of inhibition at 0.3 µg/disc (Escherichia coli [16]; read-out: IZ): 11 mm; inhibition zone (IZ) (Escherichia coli [21]): inactive; inhibition zone (IZ) (Escherichia coli [22]): inactive; inhibition zone (IZ) (Pseudomonas aeruginosa [23]; dose 3.0 µg): inactive; inhibition zone (IZ) (Escherichia coli [26]): inactive; zone of inhibition at 1 µg/disc (Escherichia coli [27]): 16 mm; zone of inhibition at 10 µg/disc (Pseudomonas aeruginosa [28]): 9 mm; inhibition zone (IZ) (Pseudomonas aeruginosa [29]): inactive; inhibition zone (IZ) (Pseudomonas aeruginosa [30]): inactive; inhibition zone (IZ) (Pseudomonas aeruginosa [31]): inactive; inhibition zone (IZ) (Escherichia coli [32]): inactive
CC/C=C/C1=C(CCCOCc2ccccc2)C(=O)OC1=O	> 10																				
CC/C=C/C1=C(CCCOS(C)(=O)=O)C(=O)OC1=O	> 10																				

The next lines start with results.

IC50 [33] [µg/mL]	SMILES	zone of inhibition at 3 µg/disc (Escherichia coli [2]) [mm]	inhibition zone (IZ) (Escherichia coli [3])	inhibition zone (IZ) (Escherichia coli [4])	inhibition zone (IZ) (Escherichia coli [5])	inhibition zone (IZ) (Pseudomonas aeruginosa [6])	inhibition zone (IZ) (Escherichia coli [7])	inhibition zone (IZ) (Escherichia coli [8])	inhibition zone (IZ) (Escherichia coli [9])	zone of inhibition at 100 µg/disc (Escherichia coli [10]) [mm]	inhibition zone (IZ) (Pseudomonas aeruginosa [11])	inhibition zone (IZ) (Pseudomonas aeruginosa [13])	inhibition zone (IZ) (Pseudomonas aeruginosa [14])	inhibition zone (IZ) (Pseudomonas aeruginosa [15])	zone of inhibition at 10 µg/disc (Escherichia coli [17]) [mm]	inhibition zone (IZ) (Pseudomonas aeruginosa [18])	zone of inhibition at 30 µg/disc (Escherichia coli [19]) [mm]	inhibition zone (IZ) (Pseudomonas aeruginosa [20])	zone of inhibition at 30 µg/disc (Pseudomonas aeruginosa [24]) [mm]	zone of inhibition at 100 µg/disc (Pseudomonas aeruginosa [25]) [mm]	also measured
5.9 (≈ 23.4 µM)	CC/C=C/C1=C(CCCOC(C)=O)C(=O)OC1=O																				
4.3 (≈ 18 µM)	CC/C=C/C1=C(CCC(=O)OC)C(=O)OC1=O	23	inactive	inactive	inactive	inactive	inactive	inactive	inactive	33	inactive	inactive	inactive	inactive	26	inactive	28	inactive	16	20	inhibition zone (IZ) (Escherichia coli [16]; dose 0.3 µg): inactive; zone of inhibition at 3 µg/disc (Pseudomonas aeruginosa [23]; read-out: IZ): 9 mm; inhibition zone (IZ) (Escherichia coli [26]): inactive; zone of inhibition at 1 µg/disc (Escherichia coli [27]): 19 mm; zone of inhibition at 10 µg/disc (Pseudomonas aeruginosa [28]): 11 mm; inhibition zone (IZ) (Pseudomonas aeruginosa [29]): inactive; inhibition zone (IZ) (Pseudomonas aeruginosa [30]): inactive; inhibition zone (IZ) (Pseudomonas aeruginosa [31]): inactive; inhibition zone (IZ) (Escherichia coli [32]): inactive
